Some test systems named below: DLD-1 colon; HOP-92 NSCLC; IGROV1 ovarian; KM12 colon; KM20L2 colon; RPMI-8226 leukemia; SF-295 CNS; SK-OV-3 ovarian.
Test in all cases: growth of human tumour cells (NCI), 48 h

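Values below derive from 48-hour exposures of cells grown in 96-well plates, with endpoints linearly interpolated between the two concentrations bracketing the appropriate inhibition level. TGI denotes the concentration required for complete inhibition of growth.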

For the compound `CN=NN(C)C(=O)NC`, the TGI with DLD-1 colon, in the experiment with HOP-92 NSCLC, in the experiment with IGROV1 ovarian, in the experiment with KM12 colon, in the experiment on KM20L2 colon and in the experiment on RPMI-8226 leukemia was over 100 µM throughout. Also, the TGI with SF-295 CNS and in the experiment on SK-OV-3 ovarian was over 100 µM each time.

With `O=C(CN1CCCCC1)N1CCc2c([nH]c3ccccc23)C1c1cccnc1` (stereo unspecified), the TGI in the experiment with DLD-1 colon, in the experiment on HOP-92 NSCLC, in the experiment with IGROV1 ovarian, in the experiment with KM12 colon, in the experiment on KM20L2 colon and in the experiment on RPMI-8226 leukemia was over 100 µM throughout. Besides, the TGI in the experiment with SF-295 CNS and in the experiment with SK-OV-3 ovarian was over 100 µM throughout.

In the case of `COC(=O)/C=C/C1C(C(=O)OC)C2(C(=O)OC)CCC1(C(=O)OC)N2` (stereo unspecified), the TGI in the experiment on DLD-1 colon, in the experiment on HOP-92 NSCLC, with IGROV1 ovarian, in the experiment on KM12 colon, in the experiment on KM20L2 colon and with RPMI-8226 leukemia was over 100 µM in each case. Moreover, the TGI in the experiment on SF-295 CNS and in the experiment on SK-OV-3 ovarian was over 100 µM throughout.

Turning to `N#CC(/C(=N/NC(=O)C(=O)NN)C(=O)NC12CC3CC(CC(C3)C1)C2)c1ccccc1` (stereo unspecified), the TGI in the experiment on DLD-1 colon, in the experiment with HOP-92 NSCLC, with IGROV1 ovarian, in the experiment with KM12 colon, in the experiment with KM20L2 colon and with RPMI-8226 leukemia was over 100 µM each time. The TGI with SF-295 CNS and with SK-OV-3 ovarian was over 100 µM each time.

As to `CCOC(=O)C1N(S(=O)(=O)c2ccc(C)cc2)CCC12C(c1ccc(OC)cc1)NC1CCCCC12` (stereo unspecified), the TGI with DLD-1 colon is over 100 µM; in the experiment with HOP-92 NSCLC it was 80.9 µM; with IGROV1 ovarian, over 100 µM; in the experiment on KM12 colon it was over 100 µM; with KM20L2 colon, over 100 µM; with RPMI-8226 leukemia it was over 100 µM. In addition, the TGI in the experiment with SF-295 CNS and with SK-OV-3 ovarian was over 100 µM each time.

Turning to `CC1=C(C(=O)Nc2c(C)cccc2C)C(c2ccccc2Cl)C(C(=O)Nc2c(C)cccc2C)=C(C)N1`, the TGI in the experiment with DLD-1 colon, in the experiment on HOP-92 NSCLC, in the experiment on IGROV1 ovarian, in the experiment on KM12 colon, in the experiment on KM20L2 colon and in the experiment on RPMI-8226 leukemia was over 100 µM in each case. For the same compound, the TGI with SF-295 CNS and in the experiment with SK-OV-3 ovarian was over 100 µM in each case.

With `O=C(/C=C/c1c(O)ccc2ccccc12)c1ccc2ccccc2c1`, the TGI with DLD-1 colon, in the experiment with HOP-92 NSCLC, with IGROV1 ovarian, with KM12 colon, with KM20L2 colon and in the experiment on RPMI-8226 leukemia was over 100 µM each time. The TGI in the experiment with SF-295 CNS and in the experiment on SK-OV-3 ovarian was over 100 µM throughout.

Consider `CCOC(=O)[C@H](CCCNC(=O)OC(C)(C)C)NCc1ccc(OC)c(OC)c1`, for which the TGI with DLD-1 colon, with HOP-92 NSCLC, in the experiment with IGROV1 ovarian, in the experiment on KM12 colon, with KM20L2 colon and in the experiment on SF-295 CNS was over 100 µM throughout. In the experiment on SK-OV-3 ovarian, this compound gave a TGI of over 100 µM.

`N#CC(C#N)=c1[nH]c2cccc3c2-c2c(cccc2c3=C(C#N)C#N)[nH]1`: the TGI in the experiment with DLD-1 colon, in the experiment with HOP-92 NSCLC, in the experiment on IGROV1 ovarian, in the experiment on KM12 colon, with KM20L2 colon and with RPMI-8226 leukemia was over 100 µM each time. Further, the TGI in the experiment on SF-295 CNS and in the experiment with SK-OV-3 ovarian was over 100 µM throughout.

For `CC(C)(C)N1CC2(CCCCC2)C1=O`, the TGI in the experiment on DLD-1 colon, in the experiment on HOP-92 NSCLC, in the experiment on IGROV1 ovarian, in the experiment with KM12 colon, in the experiment on KM20L2 colon and with RPMI-8226 leukemia was over 100 µM throughout. Also, the TGI with SF-295 CNS and with SK-OV-3 ovarian was over 100 µM in each case.

Regarding `O=S(O)CCCCSSCc1ccccc1CSSCCCCS(=O)O`, the TGI in the experiment on DLD-1 colon is over 100 µM; with HOP-92 NSCLC, 74.7 µM; with IGROV1 ovarian it was over 100 µM; with KM12 colon, 59.6 µM; with KM20L2 colon it was over 100 µM; in the experiment with RPMI-8226 leukemia it was 45.8 µM. In addition, the figures for the TGI in the experiment on SF-295 CNS and with SK-OV-3 ovarian were 49.8 µM and over 100 µM, respectively.

Turning to `Cc1cc(C)n(CCNCCn2nc(C)cc2C)n1`, the TGI in the experiment with DLD-1 colon, in the experiment with HOP-92 NSCLC, with KM12 colon, in the experiment with KM20L2 colon, in the experiment on RPMI-8226 leukemia and with SF-295 CNS was over 100 µM in each case. The compound also displayed a TGI in the experiment with SK-OV-3 ovarian of over 100 µM.

On to `O=C(CCC/C(CC(=O)c1ccc(Br)cc1)=N\O)Nc1ccccc1`, for which the TGI in the experiment on DLD-1 colon, with HOP-92 NSCLC, in the experiment on IGROV1 ovarian, with KM12 colon, in the experiment with KM20L2 colon and with RPMI-8226 leukemia was over 100 µM throughout. The TGI in the experiment with SF-295 CNS was over 100 µM.

Take `CCOC(=O)CCc1c(C)c2c(OC(C)=O)cc(OC(C)=O)cc2oc1=O`: the TGI in the experiment with DLD-1 colon, in the experiment on HOP-92 NSCLC, in the experiment on KM12 colon, in the experiment on KM20L2 colon and in the experiment on SF-295 CNS was over 100 µM in each case.

Source of the values: PubChem BioAssay (NCI).
